Measurements reported in ChEMBL document CHEMBL6121036, “Evaluation of Cereblon-Directing Warheads for the Development of Orally Bioavailable PROTACs” (J Med Chem, 2025).
Converted amounts (≈) assume the structure as drawn. Values belong to the molecule of their own block, whether it stands above or below them. The source made the active and inactive calls. No cut-off for these calls is given here.

Key:
[1] = target: T1, Protein cereblon/Bromodomain-containing protein 4 (Homo sapiens, UniProt O60885+Q96SW2); test: PROTAC activity at CRBN/Hibit-tagged BRD4 (unknown origin) expressed in HEK293 cells co-expressing LgBiT assessed as degradation of BRD4 incubated for 24 hrs by […] glo-max assay; format: cell-based
[2] = target: T1, Protein cereblon/Bromodomain-containing protein 4; test: PROTAC activity at CRBN/Hibit-tagged BRD4 (unknown origin) expressed in HEK293 cells co-expressing LgBiT assessed as degradation of BRD4 incubated for 24 hrs by […] glo-max assay relative to control; format: cell-based
[3] = target: T1, Protein cereblon/Bromodomain-containing protein 4; test: PROTAC activity at CRBN/Hibit-tagged BRD4 (unknown origin) expressed in HEK293 cells co-expressing LgBiT assessed as degradation rate incubated for 24 hrs by […] glo-max assay; format: cell-based
MV4-11 = test: Cytotoxicity against human MV4-11 cells assessed as reduction in cell viability incubated for 72 hrs by cell-titer glo assay; format: functional, cell-based; details: MV4-11, 72 h
HD-MB03 = test: Cytotoxicity against human HD-MB03 cells assessed as reduction in cell viability incubated for 72 hrs by cell-titer glo assay; format: functional, cell-based; details: HD-MB03, 72 h
[4] = Kinetic aqueous solubility of the compound at pH 7.4; format: physicochemical; details: read-out: Kinetic_solubility
[5] = Metabolic stability in mouse liver microsomes assessed as half life; format: ADME, Microsome; details: for half-life: liver microsomes
[6] = target: Protein cereblon/Bromodomain-containing protein 4/DNA damage-binding protein 1 (Homo sapiens) (UniProt O60885+Q96SW2+Q16531); test: Binding affinity to his-tagged CRBN/DDB1/GST-tagged BRD4 (49 to 170 residues)(unknown origin) assessed as ternary complex formation (AUC) incubated for 1 hr by luminescence based Alphascreen assay; format: protein assay
[7] = Cmax in female CD1 mouse at 10 mg/kg, po measured upto 24 hrs by LC-MS/MS analysis; format: ADME, organism-based; details: in vivo
[8] = Chemical stability in human MV4-11 cell culture media at 400 uM measured upto 72 hrs by UPLC analysis; format: physicochemical
[9] = Chemical stability in human HD-MB03 cell culture media at 400 uM measured upto 72 hrs by UPLC analysis; format: physicochemical
[10] = Effect on BRD3 level in human MV4-11 cells assessed as fold change at 100 nM measured after 4 hrs; format: functional
[11] = Effect on BRD4 level in human MV4-11 cells assessed as fold change at 100 nM measured after 4 hrs; format: functional
[12] = Effect on BRD2 level in human MV4-11 cells assessed as fold change at 100 nM measured after 4 hrs; format: functional
[13] = Effect on MYC level in human MV4-11 cells assessed as fold change at 100 nM measured after 4 hrs; format: functional
[14] = Effect on FYTTD1 level in human MV4-11 cells assessed as fold change at 100 nM measured after 4 hrs; format: functional
[15] = Effect on CCNF level in human MV4-11 cells assessed as fold change at 100 nM measured after 4 hrs; format: functional
[16] = Effect on CDC42EP3 level in human MV4-11 cells assessed as fold change at 100 nM measured after 4 hrs; format: functional
[17] = Effect on MCL1 level in human MV4-11 cells assessed as fold change at 100 nM measured after 4 hrs; format: functional
[18] = Effect on PLAU level in human MV4-11 cells assessed as fold change at 100 nM measured after 4 hrs; format: functional
[19] = Effect on ZFP36L2 level in human MV4-11 cells assessed as fold change at 100 nM measured after 4 hrs; format: functional
[20] = Effect on FGL2 level in human MV4-11 cells assessed as fold change at 100 nM measured after 4 hrs; format: functional
[21] = Effect on NSA2 level in human MV4-11 cells assessed as fold change at 100 nM measured after 4 hrs; format: functional
[22] = Effect on CCND3 level in human MV4-11 cells assessed as fold change at 100 nM measured after 4 hrs; format: functional
[23] = Effect on AURKA level in human MV4-11 cells assessed as fold change at 100 nM measured after 4 hrs; format: functional
[24] = Effect on NOP53 level in human MV4-11 cells assessed as fold change at 100 nM measured after 4 hrs; format: functional
[25] = Effect on PLK1 level in human MV4-11 cells assessed as fold change at 100 nM measured after 4 hrs; format: functional
[26] = Effect on RNF166 level in human MV4-11 cells assessed as fold change at 100 nM measured after 4 hrs; format: functional
[27] = Effect on ZBTB21 level in human MV4-11 cells assessed as fold change at 100 nM measured after 4 hrs; format: functional
[28] = Effect on TP53 level in human MV4-11 cells assessed as fold change at 100 nM measured after 4 hrs; format: functional
[29] = Permeability in MDCK-II cells incubated for 1 hr by UPLC/MS/UV analysis; format: ADME, cell-based, Canis lupus familiaris; details: dog, read-out: permeability
[30] = Stability in mouse plasma assessed as half life by UPLC-MS/MS analysis; format: ADME, cell-free
[31] = AUC last in female CD1 mouse at 10 mg/kg, po measured upto 24 hrs by LC-MS/MS analysis; format: ADME, organism-based; details: in vivo
HEK293 = test: Cytotoxicity against HEK293 cells expressing LgBiT fused HiBiT-BRD2 measured after 24 hrs by cell titer-glo assay; format: toxicity, cell-based; details: human, hek293, 24 h
[32] = target: T2, Protein cereblon/Bromodomain-containing protein 2 (Homo sapiens) (UniProt P25440+Q96SW2); test: PROTAC activity at CRBN/Hibit-tagged CRISPR BRD2 (unknown origin) expressed in HEK293 cells coexpressing LgBiT assessed as degradation of BRD2 by […] glo-max assay; format: cell-based
[33] = target: T3, Protein cereblon/Bromodomain-containing protein 3 (Homo sapiens) (UniProt Q15059+Q96SW2); test: PROTAC activity at CRBN/Hibit-tagged CRISPR BRD3 (unknown origin) expressed in HEK293 cells co-expressing LgBiT assessed as degradation of BRD3 by […] glo-max assay; format: cell-based
[34] = target: T1, Protein cereblon/Bromodomain-containing protein 4; test: PROTAC activity at CRBN/Hibit-tagged CRISPR BRD4 (unknown origin) expressed in HEK293 cells co-expressing LgBiT assessed as degradation of BRD4 by […] glo-max assay; format: cell-based
[35] = target: T2, Protein cereblon/Bromodomain-containing protein 2 (Homo sapiens); test: PROTAC activity at CRBN/Hibit-tagged CRISPR BRD2 (unknown origin) expressed in HEK293 cells coexpressing LgBiT assessed as degradation of BRD2 by […] glo-max assay relative to control; format: cell-based
[36] = target: T3, Protein cereblon/Bromodomain-containing protein 3 (Homo sapiens); test: PROTAC activity at CRBN/Hibit-tagged CRISPR BRD3 (unknown origin) expressed in HEK293 cells co-expressing LgBiT assessed as degradation of BRD3 by […] glo-max assay relative to control; format: cell-based
[37] = target: T1, Protein cereblon/Bromodomain-containing protein 4; test: PROTAC activity at CRBN/Hibit-tagged CRISPR BRD4 (unknown origin) expressed in HEK293 cells co-expressing LgBiT assessed as degradation of BRD4 by […] glo-max assay relative to control; format: cell-based
[38] = target: T2, Protein cereblon/Bromodomain-containing protein 2 (Homo sapiens); test: PROTAC activity at CRBN/Hibit-tagged CRISPR BRD2 (unknown origin) expressed in HEK293 cells coexpressing LgBiT assessed as degradation of BRD2 measured after 10 to 14 hrs by […] glo-max assay; format: cell-based; details: time 10-14 hrs
[39] = target: T3, Protein cereblon/Bromodomain-containing protein 3 (Homo sapiens); test: PROTAC activity at CRBN/Hibit-tagged CRISPR BRD3 (unknown origin) expressed in HEK293 cells co-expressing LgBiT assessed as degradation of BRD3 measured after 13 to 16 hrs by […] glo-max assay; format: cell-based; details: time 13-16 hrs
[40] = target: T1, Protein cereblon/Bromodomain-containing protein 4; test: PROTAC activity at CRBN/Hibit-tagged CRISPR BRD4 (unknown origin) expressed in HEK293 cells co-expressing LgBiT assessed as degradation of BRD4 measured after 18 to 24 hrs by […] glo-max assay; format: cell-based; details: time 18-24 hrs
[41] = target: Protein cereblon (Homo sapiens) (UniProt Q96SW2); test: Binding affinity to CRBN (unknown origin)
[42] = Permeability in human MV4-11 cells assessed as cell availability index relative to lenalidomide; format: ADME, cell-based

DC50 [1]: 2.74 nM | Emax [2]: 46.4% | Activity [3]: 0.047 fRLU/hr | solubility kinetic [4]: 72.5 µM (≈ 54.7 µg/mL) | half-life [5]: 1.42 h | Cmax [7]: 345 ng/mL | Stability [8]: Stable | Stability [9]: Stable | Papp at 1 h [29]: 0.29 ×10⁻⁶ cm/s | half-life [30]: 16.5 h | AUC(0-t) at 24 h [31]: 1420 ng·h/mL
SMILES: Cc1sc2c(c1C)C(c1ccc(Cl)cc1)=N[C@@H](CC(=O)N1CCC(CN3CCN(c4ccc(N5CCC(=O)NC5=O)cc4)CC3)CC1)c1nnc(C)n1-2
IC50 (MV4-11): 0.66 nM | IC50 (HD-MB03): 15.1 nM | Activity [6]: Active | fold change (FC) [10]: -2.99 | fold change (FC) [11]: -2.92 | fold change (FC) [12]: -2.79 | fold change (FC) [13]: -2.09 | fold change (FC) [14]: -1.21 | fold change (FC) [15]: -0.89 | fold change (FC) [16]: -1.16 | fold change (FC) [17]: -1.01 | fold change (FC) [18]: -0.89 | fold change (FC) [19]: -0.91 | fold change (FC) [20]: -1 | fold change (FC) [21]: -0.85 | fold change (FC) [22]: -0.7 | fold change (FC) [23]: -0.74 | fold change (FC) [24]: -0.72 | fold change (FC) [25]: -0.67 | fold change (FC) [26]: -0.3 | fold change (FC) [27]: -0.1 | fold change (FC) [28]: 1.65

DC50 [1]: 0.57 nM | Emax [2]: 96.9% | Activity [3]: 0.343 fRLU/hr | solubility kinetic [4]: 74.5 µM (≈ 61.3 µg/mL) | half-life [5]: 2.17 h | t1/2 ([5]; microsomes): 2.17 h | Cmax [7]: 23 ng/mL | Activity [32]: Active | Activity [33]: Active | Activity [34]: Active | Activity [35]: > 95% | Activity [36]: > 95% | Activity [37]: > 90% | Activity [38]: Active | Activity [39]: Active | Activity [40]: Active | Activity [41]: Active | Ratio [42]: 3.7 | Papp at 1 h [29]: 0.95 ×10⁻⁶ cm/s | half-life [30]: 68.4 h | AUC(0-t) at 24 h [31]: 97 ng·h/mL
SMILES: Cc1sc2c(c1C)C(c1ccc(Cl)cc1)=N[C@@H](CC(=O)N1CCC(CN3CCN(c4ccc5c(c4)n(C)c(=O)n5C4CCC(=O)NC4=O)CC3)CC1)c1nnc(C)n1-2 (some centres not stated)
IC50 (MV4-11): 0.03 nM | IC50 (HD-MB03): 0.56 nM | Activity [6]: Active | Activity (HEK293): Non-toxic | fold change (FC) [10]: -4.26 | fold change (FC) [11]: -3.81 | fold change (FC) [12]: -3.63 | fold change (FC) [13]: -2.43 | fold change (FC) [14]: -1.69 | fold change (FC) [15]: -2.01 | fold change (FC) [16]: -1.05 | fold change (FC) [17]: -1.19 | fold change (FC) [18]: -1.08 | fold change (FC) [19]: -1.03 | fold change (FC) [20]: -0.86 | fold change (FC) [21]: -1.12 | fold change (FC) [22]: -0.86 | fold change (FC) [23]: -1.01 | fold change (FC) [24]: -0.87 | fold change (FC) [25]: -0.76 | fold change (FC) [26]: -0.24 | fold change (FC) [27]: -0.13 | fold change (FC) [28]: 1.88
